Data on one molecule can be found in ChEMBL document CHEMBL6120968, “Discovery of Thiadiazoleamide Derivatives as Potent, Selective, and Orally Available Antagonists Disrupting Androgen Receptor Homodimer” (J Med Chem, 2024).

The nature of series [1]: Cmax in rat at 20 mg/kg, po by LC-MS/MS analysis. The conditions noted are these: in vivo. Format: ADME, organism-based.
For a further series, the target named is T1, Progesterone receptor (Homo sapiens, UniProt P06401).
T1 sequence (P06401 whole entry): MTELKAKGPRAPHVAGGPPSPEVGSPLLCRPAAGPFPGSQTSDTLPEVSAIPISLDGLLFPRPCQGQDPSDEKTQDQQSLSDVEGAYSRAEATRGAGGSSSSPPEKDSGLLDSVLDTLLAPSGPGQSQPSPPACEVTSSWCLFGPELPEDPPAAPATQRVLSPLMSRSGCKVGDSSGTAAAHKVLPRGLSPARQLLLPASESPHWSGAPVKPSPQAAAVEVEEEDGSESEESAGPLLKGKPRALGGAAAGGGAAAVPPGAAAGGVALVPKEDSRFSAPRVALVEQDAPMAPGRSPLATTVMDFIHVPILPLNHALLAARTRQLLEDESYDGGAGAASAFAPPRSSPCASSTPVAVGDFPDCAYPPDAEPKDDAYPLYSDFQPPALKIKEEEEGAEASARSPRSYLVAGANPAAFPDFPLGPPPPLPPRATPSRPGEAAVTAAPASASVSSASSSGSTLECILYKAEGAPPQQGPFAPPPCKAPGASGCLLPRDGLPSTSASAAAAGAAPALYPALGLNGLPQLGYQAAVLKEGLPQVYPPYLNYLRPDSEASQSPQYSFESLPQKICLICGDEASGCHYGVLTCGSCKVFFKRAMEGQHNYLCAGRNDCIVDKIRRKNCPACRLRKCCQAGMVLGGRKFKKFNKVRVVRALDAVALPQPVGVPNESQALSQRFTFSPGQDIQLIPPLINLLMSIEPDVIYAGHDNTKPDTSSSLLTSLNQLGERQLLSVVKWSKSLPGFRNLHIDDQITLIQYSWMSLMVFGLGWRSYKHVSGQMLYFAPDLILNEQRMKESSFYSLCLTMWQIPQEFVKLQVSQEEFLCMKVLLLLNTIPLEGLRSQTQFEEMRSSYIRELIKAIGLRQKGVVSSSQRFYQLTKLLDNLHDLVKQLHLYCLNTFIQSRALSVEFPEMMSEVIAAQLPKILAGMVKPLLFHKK
The series is described as follows: Agonist activity at progesterone receptor (unknown origin).

`Cc1oc(-c2cccc(C(F)(F)F)c2)cc1C(=O)Nc1nc(CN2CCOCC2)ns1` gave a peak concentration (Cmax) in series [1] of 1880 ng/mL. The IC50 at Progesterone receptor was > 10 µM.

What is called Cmax is the peak of the concentration-time curve. As a reminder, the IC50 is the concentration at which inhibition is half-maximal. A lower IC50 goes with inhibition by little substance.
